Experimental data published in publication PMC4980693, “TRPV4 regulates calcium homeostasis, cytoskeletal remodeling, conventional outflow and intraocular pressure in the mammalian eye” (Scientific Reports, 2016).

What was measured:
[1] = biological target: T1, TRPV4 (transient receptor potential vanilloid 4) (Homo sapiens, UniProt Q9HBA0); experiment: whole-cell patch clamp and Fura-2 Ca2+ imaging in human trabecular meshwork cells (endogenous channel), agonist; type: cell-based
[2] = biological target: T1, TRPV4 (transient receptor potential vanilloid 4); experiment: inhibition of GSK101 ([…])-induced Ca2+ signals in human trabecular meshwork cells (Fura-2); putative prodrug analog of HC-067047; type: cell-based

T1 sequence (Q9HBA0 whole entry): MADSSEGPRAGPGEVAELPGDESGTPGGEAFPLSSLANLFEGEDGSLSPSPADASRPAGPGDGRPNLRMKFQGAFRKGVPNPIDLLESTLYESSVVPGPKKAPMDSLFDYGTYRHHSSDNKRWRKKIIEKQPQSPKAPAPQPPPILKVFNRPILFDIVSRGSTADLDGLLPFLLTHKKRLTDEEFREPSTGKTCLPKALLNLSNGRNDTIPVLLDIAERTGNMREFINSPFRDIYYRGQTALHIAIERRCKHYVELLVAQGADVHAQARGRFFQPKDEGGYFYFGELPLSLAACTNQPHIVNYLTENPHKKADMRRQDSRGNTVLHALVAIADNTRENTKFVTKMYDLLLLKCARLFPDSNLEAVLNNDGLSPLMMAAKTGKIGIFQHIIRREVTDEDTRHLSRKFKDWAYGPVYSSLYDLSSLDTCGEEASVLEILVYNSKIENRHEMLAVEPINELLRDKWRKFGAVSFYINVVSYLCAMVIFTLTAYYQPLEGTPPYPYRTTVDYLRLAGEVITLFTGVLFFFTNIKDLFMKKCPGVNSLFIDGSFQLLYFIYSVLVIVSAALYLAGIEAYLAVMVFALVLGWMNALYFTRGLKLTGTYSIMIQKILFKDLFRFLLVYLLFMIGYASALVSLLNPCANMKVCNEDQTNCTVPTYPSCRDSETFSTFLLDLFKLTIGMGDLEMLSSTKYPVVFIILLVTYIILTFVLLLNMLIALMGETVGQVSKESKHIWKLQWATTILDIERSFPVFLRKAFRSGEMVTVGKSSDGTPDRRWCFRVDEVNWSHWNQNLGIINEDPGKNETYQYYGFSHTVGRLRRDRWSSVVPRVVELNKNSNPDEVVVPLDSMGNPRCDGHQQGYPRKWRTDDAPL

Row | SMILES | EC50 [1] [µM] | IC50 [2] [µM]
1 | CC(C)C[C@H](NC(=O)c1cc2ccccc2s1)C(=O)N1CCN(C(=O)[C@H](CO)NS(=O)(=O)c2ccc(Cl)cc2Cl)CC1 [GSK101, GSK1016790A] | ~0.025 | –
2 | Cc1c(C(=O)Nc2cccc(C(=O)OC(C)C)c2)cc(-c2ccccc2)n1CCCN1CCOCC1 [YX-02, isopropyl 3-(2-methyl-1-(3-morpholinopropyl)-5-phenyl-1H-pyrrole-3-carboxamido)benzoate] | – | 0.74 ± 0.04
